Data taken from US8680159B2, “Bradykinin 1 receptor modulating compounds” (Gruenenthal GmbH, priority 2010, dated 2014).

Legend:
[1] = biological target: T1, B1R receptor of the rat (CHO K1 cells stably transfected with the B1R gene of the rat) (Rattus norvegicus, UniProt P97583); experiment: Functional study on the bradykinin receptor 1 (B1R), Ca2+ fluorescence (Fluo-4) FLIPR/Novostar assay, rB1R cells; type: cell-based; settings: CHO-K1, 10 μM, read-out: % inhibition (rat B1R) at 10 μM
T1 construct: expressed in transfected cells; host or cells: CHO K1 cells (Chinese hamster ovary), stably transfected
T1 sequence (P97583 1-337): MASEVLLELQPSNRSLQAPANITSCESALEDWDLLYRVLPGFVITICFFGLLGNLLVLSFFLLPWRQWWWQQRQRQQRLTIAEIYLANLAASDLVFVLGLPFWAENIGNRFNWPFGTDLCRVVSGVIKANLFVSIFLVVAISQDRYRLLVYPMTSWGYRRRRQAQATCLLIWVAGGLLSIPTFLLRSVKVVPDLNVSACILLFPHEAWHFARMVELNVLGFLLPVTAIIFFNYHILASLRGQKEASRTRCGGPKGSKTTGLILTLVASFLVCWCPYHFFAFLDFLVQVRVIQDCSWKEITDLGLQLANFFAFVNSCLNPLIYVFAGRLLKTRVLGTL
Summary of the method: (§1)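 Ca2+ influx (Fluo-4, peak fluorescence, λex 488/λem 540 nm) was measured in CHO K1 lines expressing rat or human B1R. After a 10 μM test-compound pre-addition scoring % activation, cells received EC80 agonist: Des-Arg9-bradykinin for rat, Lys-Des-Arg9-bradykinin for human. Antagonism was expressed as % of maximum inhibition, with IC50 from varied concentrations.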

[2] = biological target: T2, human B1R receptor (CHO K1 cells stably transfected with the human B1R gene) (Homo sapiens, UniProt P46663); experiment: Functional study on the bradykinin receptor 1 (B1R), Ca2+ fluorescence (Fluo-4) FLIPR/Novostar assay, hB1R cells; type: cell-based; settings: CHO-K1, read-out: % inhibition (human B1R) at 10 μM
T2 construct: expressed in transfected cells; host or cells: CHO K1 cells (Chinese hamster ovary), stably transfected
T2 sequence (P46663 1-353): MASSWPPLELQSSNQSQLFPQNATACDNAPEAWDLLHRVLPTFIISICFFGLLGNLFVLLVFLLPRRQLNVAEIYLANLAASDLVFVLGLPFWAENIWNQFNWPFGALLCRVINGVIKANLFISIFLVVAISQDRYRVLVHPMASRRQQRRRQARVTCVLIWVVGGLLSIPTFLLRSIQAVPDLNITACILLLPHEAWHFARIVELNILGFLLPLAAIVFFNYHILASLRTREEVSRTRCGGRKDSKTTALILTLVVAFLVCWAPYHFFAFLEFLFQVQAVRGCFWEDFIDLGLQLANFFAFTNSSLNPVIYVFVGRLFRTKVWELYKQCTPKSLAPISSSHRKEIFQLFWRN
Summary of the method: as §1

inhibition at 10 µM [1]	inhibition at 10 µM [2]	Structure (SMILES)
89%	74%	Cc1cc(N2CCC(N(C)C(=O)c3ccc4c(c3)[C@H](NC(=O)C3CCOCC3)CC4)CC2)nc(C)n1 [Example H-89, N-[(1R)-6-[[1-(2,6-Dimethyl-pyrimidin-4-yl)-piperidin-4-yl]-methyl-carbamoyl]-2,3-dihydro-1H-inden-1-yl]-tetrahydro-pyran-4-carboxylic acid amide]
105%	62%	CN(C(=O)c1ccc2c(c1)[C@H](NC(=O)c1ccccc1Cl)CC2)C1CCN(C(=O)CCN2CCCCC2)CC1 [Example H-90, (3R)-3-[(2-Chloro-benzoyl)amino]-N-methyl-N-[1-(3-piperidin-1-yl-propanoyl)-piperidin-4-yl]-2,3-dihydro-1H-indene-5-carboxylic acid amide]
108%	100%	Cc1cc(N2CCC(N(C)C(=O)c3ccc4c(c3)[C@H](NC(=O)c3cccnc3C(F)(F)F)CC4)CC2)nc(C)n1 [Example H-91, N-[(1R)-6-[[1-(2,6-Dimethyl-pyrimidin-4-yl)-piperidin-4-yl]-methyl-carbamoyl]-2,3-dihydro-1H-inden-1-yl]-2-(trifluoromethyl)-pyridine-3-carboxylic acid amide]
106%	100%	Cc1cc(N2CCC(N(C)C(=O)c3ccc4c(c3)[C@H](NC(=O)c3cccnc3C(F)(F)F)CC4)CC2)ccn1 [Example H-92, N-[(1R)-6-[Methyl-[1-(2-methyl-pyridin-4-yl)-piperidin-4-yl]-carbamoyl]-2,3-dihydro-1H-inden-1-yl]-2-(trifluoromethyl)-pyridine-3-carboxylic acid amide]
103%	100%	Cc1cc(N2CCC(N(C)C(=O)c3ccc4c(c3)[C@H](NC(=O)CCC3CCCC3)CC4)CC2)ccn1 [Example H-93, (3R)-3-(3-Cyclopentyl-propanoylamino)-N-methyl-N-[1-(2-methyl-pyridin-4-yl)-piperidin-4-yl]-2,3-dihydro-1H-indene-5-carboxylic acid amide]
99%	100%	Cc1cc(N2CCC(N(C)C(=O)c3ccc4c(c3)[C@H](NC(=O)CCC3CCCC3)CC4)CC2)nc(C)n1 [Example H-94, (3R)-3-(3-Cyclopentyl-propanoylamino)-N-[1-(2,6-dimethyl-pyrimidin-4-yl)-piperidin-4-yl]-N-methyl-2,3-dihydro-1H-indene-5-carboxylic acid amide]
104%	100%	Cc1cc(N2CCC(N(C)C(=O)c3ccc4c(c3)[C@H](NC(=O)c3cc(C)on3)CC4)CC2)ccn1 [Example H-95, 5-Methyl-N-[(1R)-6-[methyl-[1-(2 methyl-pyridin-4-yl)-piperidin-4-yl]-carbamoyl]-2,3-dihydro-1H-inden-1-yl]-isoxazole-3-carboxylic acid amide]
104%	100%	Cc1cc(N2CCC(N(C)C(=O)c3ccc4c(c3)[C@H](NC(=O)c3cc(C)on3)CC4)CC2)nc(C)n1 [Example H-96, N-[(1R)-6-[[1-(2,6-Dimethyl-pyrimidin-4-yl)-piperidin-4-yl]-methyl-carbamoyl]-2,3-dihydro-1H-inden-1-yl]-5-methyl-isoxazole-3-carboxylic acid amide]
105%	100%	CN(C(=O)c1ccc2c(c1)[C@H](NC(=O)c1ccccc1Cl)CC2)C1CCN(c2cc[n+]([O-])cc2)CC1 [Example H-98, (3R)-3-[(2-Chloro-benzoyl)amino]-N-methyl-N-[1-(1-oxido-pyridin-1-ium-4-yl)-piperidin-4-yl]-2,3-dihydro-1H-indene-5-carboxylic acid amide]
104%	81%	CN(C(=O)c1ccc2c(c1)[C@H](NC(=O)c1ccccc1Cl)CC2)C1CCC(N2CCc3cnccc3C2)CC1 (stereo partly drawn) [Example H-99, (3R)-3-[(2-Chloro-benzoyl)amino]-N-methyl-N-[4-(1,2,3,4-tetrahydro-[2,6]naphthyridin-2-yl)-cyclohexyl]-2,3-dihydro-1H-indene-5-carboxylic acid amide]
103%	100%	CN(C)c1cc(N2CCC(N(C)C(=O)c3ccc4c(c3)[C@H](NC(=O)c3ccccc3Cl)CC4)CC2)ccn1 [Example H-100, (3R)-3-[(2-Chloro-benzoyl)amino]-N-[1-(2-dimethylamino-pyridin-4-yl)-piperidin-4-yl]-N-methyl-2,3-dihydro-1H-indene-5-carboxylic acid amide]
95%	13%	COc1ccc(N2CCC(N(C)C(=O)c3ccc4c(c3)[C@H](NC(=O)c3ccccc3Cl)CC4)CC2)cn1 [Example H-101, (3R)-3-[(2-Chloro-benzoyl)amino]-N-[1-(6-methoxy-pyridin-3-yl)-piperidin-4-yl]-N-methyl-2,3-dihydro-1H-indene-5-carboxylic acid amide]
103%	68%	CN(C)c1ncc2c(n1)CCN(C1CCC(N(C)C(=O)c3ccc4c(c3)[C@H](NC(=O)c3ccccc3Cl)CC4)CC1)C2 (stereo partly drawn) [Example H-102, (3R)-3-[(2-Chloro-benzoyl)amino]-N-[4-(2-dimethylamino-5,6,7,8-tetrahydro-pyrido[4,3-d]pyrimidin-6-yl)-cyclohexyl]-N-methyl-2,3-dihydro-1H-indene-5-carboxylic acid amide]
72%	27%	CN1CCN([C@@H]2CCC[C@H](N(C)C(=O)c3ccc4c(c3)[C@H](NC(=O)c3ccccc3Cl)CC4)C2)CC1 [Example H-103, (3R)-3-[(2-Chloro-benzoyl)amino]-N-methyl-N-[(1S,3R)-3-(4-methyl-piperazin-1-yl)-cyclohexyl]-2,3-dihydro-1H-indene-5-carboxylic acid amide]
37%	75%	CN1CCN([C@@H]2CCC[C@H](N(C)C(=O)c3ccc4c(c3)[C@H](NS(=O)(=O)c3ccccc3Cl)CC4)C2)CC1 [Example H-104, (3R)-3-[[(2-Chlorophenyl)sulfonyl]amino]-N-methyl-N-[(1S,3R)-3-(4-methyl-piperazin-1-yl)-cyclohexyl]-2,3-dihydro-1H-indene-5-carboxylic acid amide]
26%	23%	CN(C(=O)c1ccc2c(c1)C(N(C(=O)c1ccccc1Cl)C(C)(C)C)CC2)C1CCN(c2ccncc2)CC1 (stereo not drawn) [Example H-110, 3-[tert-Butyl-(2-chloro-benzoyl)-amino]-N-methyl-N-(1-pyridin-4-yl-piperidin-4-yl)-2,3-dihydro-1H-indene-5-carboxylic acid amide]
10%	65%	CN1CCN([C@@H]2CCC[C@H](N(C)C(=O)c3ccc4c(c3)CC[C@H]4N3Cc4cccc(Cl)c4C3=O)C2)CC1 [Example H-111, (1R)-1-(4-Chloro-3-oxo-1,2-dihydro-isoindol-2-yl)-N-methyl-N-[(1S,3R)-3-(4-methyl-piperazin-1-yl)-cyclohexyl]-2,3-dihydro-1H-indene-5-carboxylic acid amide]
99%	99%	COc1cc(N2CCC(N(C)C(=O)c3ccc4c(c3)[C@H](NC(=O)c3ccccc3Cl)CC4)CC2)ccn1 [Example H-112, (3R)-3-[(2-Chloro-benzoyl)amino]-N-[1-(2-methoxy-pyridin-4-yl)-piperidin-4-yl]-N-methyl-2,3-dihydro-1H-indene-5-carboxylic acid amide]
100%	98%	CN(C)c1ccc(N2CCC(N(C)C(=O)c3ccc4c(c3)[C@H](NC(=O)c3ccccc3Cl)CC4)CC2)cn1 [Example H-113, (3R)-3-[(2-Chloro-benzoyl)amino]-N-[1-(6-dimethylamino-pyridin-3-yl)-piperidin-4-yl]-N-methyl-2,3-dihydro-1H-indene-5-carboxylic acid amide]
96%	38%	CN(C(=O)c1ccc2c(c1)[C@H](NC(=O)c1ccccc1Cl)CC2)C1CCC(Oc2ccncc2)CC1 (stereo partly drawn) [Example H-114, (3R)-3-[(2-Chloro-benzoyl)amino]-N-methyl-N-(4-pyridin-4-yloxy-cyclohexyl)-2,3-dihydro-1H-indene-5-carboxylic acid amide]
63%	13%	CN(C(=O)c1ccc2c(c1)[C@H](NC(=O)c1ccccc1Cl)CC2)C1CCCN(c2ccncc2)C1 (stereo partly drawn) [Example H-115, (3R)-3-[(2-Chloro-benzoyl)amino]-N-methyl-N-(1-pyridin-4-yl-piperidin-3-yl)-2,3-dihydro-1H-indene-5-carboxylic acid amide]
